Data from the supplement of paper PMC10307832.

Key:
Assay in all cases: relative viability (nuclei count vs DMSO), 5 days (fraction); higher = more cells survive
TPCA-1 + Navitoclax = compound: C1=CC(=CC=C1C2=CC(=C(S2)NC(=O)N)C(=O)N)F [TPCA-1] + CC1(C)CCC(c2ccc(Cl)cc2)=C(CN2CCN(c3ccc(C(=O)NS(=O)(=O)c4ccc(N[C@H](CCN5CCOCC5)CSc5ccccc5)c(S(=O)(=O)C(F)(F)F)c4)cc3)CC2)C1 [Navitoclax] (partner 0.5 µM)
In short: (§1)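 Lung cancer cell lines, seeded in 1536-well plates, were treated the following day by pin tool with a single drug or with five library-drug doses (not always all listed) in √10 steps on top of a fixed anchor-drug dose. Cells were fixed and nuclei stained in one step after 5 days, and nuclei were counted. Relative viability is the nuclei count for treated wells divided by that for vehicle wells, reported as medians of duplicate plates.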

[1] = compound: C[C@]12O[C@H](C[C@]1(O)CO)n1c3ccccc3c3c4c(c5c6ccccc6n2c5c31)CNC4=O [Lestaurtinib] + O=C(CCCCCCC(=O)Nc1ccccc1)NO [Vorinostat] (partner 1 µM)
In short: as §1

Lestaurtinib + AZD7762 = compound: C[C@]12O[C@H](C[C@]1(O)CO)n1c3ccccc3c3c4c(c5c6ccccc6n2c5c31)CNC4=O [Lestaurtinib] + NC(=O)Nc1cc(-c2cccc(F)c2)sc1C(=O)N[C@H]1CCCNC1 [AZD7762] (partner 0.2 µM)
In short: as §1

[2] = compound: C[C@]12O[C@H](C[C@]1(O)CO)n1c3ccccc3c3c4c(c5c6ccccc6n2c5c31)CNC4=O [Lestaurtinib] + Nc1ncn([C@H]2C[C@H](O)[C@@H](CO)O2)c(=O)n1 [Decitabine] (partner 2 µM)
In short: as §1

Cell Line	relative viability (TPCA-1 + Navitoclax; first compound 0.04 µM)	relative viability (TPCA-1 + Navitoclax; first compound 0.1265 µM)	relative viability (TPCA-1 + Navitoclax; first compound 0.4 µM)	relative viability (TPCA-1 + Navitoclax; first compound 1.265 µM)	relative viability (TPCA-1 + Navitoclax; first compound 4 µM)	relative viability ([1]; first compound 0.005 µM)	relative viability ([1]; first compound 0.01581 µM)	relative viability ([1]; first compound 0.05 µM)	relative viability ([1]; first compound 0.1581 µM)	relative viability ([1]; first compound 0.5 µM)	relative viability (Lestaurtinib + AZD7762; first compound 0.005 µM)	relative viability (Lestaurtinib + AZD7762; first compound 0.01581 µM)	relative viability (Lestaurtinib + AZD7762; first compound 0.05 µM)	relative viability (Lestaurtinib + AZD7762; first compound 0.1581 µM)	relative viability (Lestaurtinib + AZD7762; first compound 0.5 µM)	relative viability ([2]; first compound 0.005 µM)	relative viability ([2]; first compound 0.01581 µM)	relative viability ([2]; first compound 0.05 µM)	relative viability ([2]; first compound 0.1581 µM)	relative viability ([2]; first compound 0.5 µM)
LOU-NH91	0.822	0.585	0.692	0.65	0.507	0.824	0.962	0.646	0.422	0.303	0.688	0.754	0.573	0.524	0.378	0.818	0.816	0.804	0.679	0.659
PC-14	1.03	0.876	1.01	1.09	0.913	0.718	0.558	0.509	0.324	0.0543	0.336	0.57	0.362	0.248	0.146	0.244	0.223	0.237	0.207	0.0672
NCI-H2087	1.02	0.818	0.936	0.791	0.356	0.815	0.652	0.667	0.474	0.373	1.27	1.2	1.06	0.761	0.302	0.289	0.338	0.258	0.207	0.206
LU99A	0.976	0.77	0.802	0.766	0.473	0.437	0.484	0.416	0.213	0.169	0.362	0.348	0.34	0.277	0.158	0.711	0.84	0.572	0.366	0.276
BEN	0.0874	0.0533	0.0644	0.0802	0.0674	0.631	0.704	0.59	0.477	0.309	0.674	0.818	0.634	0.625	0.341	0.787	0.854	0.688	0.459	0.349
